Patent US8431585B2, “Use of inhibitors of the EGFR-mediated signal transduction for the treatment of benign prostatic hyperplasia (BPH)/prostatic hypertrophy” (Boehringer Ingelheim Pharma GmbH & Co. KG, priority 2002, dated 2013)
Marks after values point to notes of the source that are not given here.

Tested on: prostate
Assay: Prostate-reducing activity: prostate weight of male rats after 14-15 days of once-daily oral treatment with an EGF-R-TK inhibitor
Type: in vivo
Description: The active substance is administered once a day as a suspension through an oesophageal tube. After the test period has ended the animals are killed, their prostates are removed and weighed.

[1] = 10 mg/kg once a day by oesophageal tube, length of treatment 14 days
[2] = 30 mg/kg once a day by oesophageal tube, length of treatment 14 days
[3] = 100 mg/kg once a day by oesophageal tube, length of treatment 14 days
[4] = 10 mg/kg once a day by oesophageal tube, length of treatment 15 days
[5] = 30 mg/kg once a day by oesophageal tube, length of treatment 15 days
[6] = 100 mg/kg once a day by oesophageal tube, length of treatment 15 days

SMILES: CN(CC=CC(=O)Nc1cc2c(Nc3ccc(F)c(Cl)c3)ncnc2cc1OC1CCCC1)C1CC1 [compound b, 4-[(3-chloro-4-fluorophenyl)amino]-6-{[4-(N-cyclopropyl-N-methyl-amino)-1-oxo-2-buten-1-yl]amino}-7-cyclopentyloxy-quinazoline]
- average absolute weight (prostate) [1]: 0.3983* g
- average relative weight [% of body weight] (prostate) [1]: 0.1622* % of body weight
- average relative weight [% of the brain] (prostate) [1]: 20.23* % of the brain
- average absolute weight (prostate) [2]: 0.3989 g
- average relative weight [% of body weight] (prostate) [2]: 0.1697 % of body weight
- average relative weight [% of the brain] (prostate) [2]: 20.71* % of the brain
- average absolute weight (prostate) [3]: 0.1848* g
- average relative weight [% of body weight] (prostate) [3]: 0.1191* % of body weight
- average relative weight [% of the brain] (prostate) [3]: 10.13* % of the brain

SMILES: CN(C)CC=CC(=O)Nc1cc2c(Nc3ccc(F)c(Cl)c3)ncnc2cc1OC[C@@H]1CCCO1 [compound c, 4-[(3-chloro-4-fluorophenyl)amino]-6-{[4-(N,N-dimethylamino)-1-oxo-2-buten-1-yl]amino}-7-[(S)-(tetrahydrofuran-2-yl)methoxy]-quinazoline]
- average absolute weight (prostate) [4]: 0.3854* g
- average relative weight [% of body weight] (prostate) [4]: 0.1681 % of body weight
- average relative weight [% of the brain] (prostate) [4]: 19.67* % of the brain
- average absolute weight (prostate) [5]: 0.2242* g
- average relative weight [% of body weight] (prostate) [5]: 0.1117* % of body weight
- average relative weight [% of the brain] (prostate) [5]: 11.50* % of the brain
- average absolute weight (prostate) [6]: 0.1463* g
- average relative weight [% of body weight] (prostate) [6]: 0.0892* % of body weight
- average relative weight [% of the brain] (prostate) [6]: 7.63* % of the brain
